Measured values as given in patent US4551460A, “Pyrido[2,1-b]quinazoline derivatives useful as agents for treatment of allergic conditions and vascular disorders involving thrombosis” (priority 1983, dated 1985).
Read-outs that look alike come from different tables or passages of the source.

Assays:
[1] = tested on: cutaneous anaphylaxis in passively sensitized rats; assay: Inhibition of allergic mediator release in the rat passive cutaneous anaphylaxis test; type: in vivo, rat (Sprague-Dawley); settings: po, p.o., read-out: ID50 inhibition of allergic mediator release (PCA test)
Experimental: (i) Inhibition of Cutaneous Anaphylaxis in Passively Sensitized Rats
(l) Preparation of Antiserum
IgE-containing rat antiserum (reaginic antiserum) was prepared according to the following procedure. Normal, male Sprague-Dawley rats (150-200 g) obtained from Charles River Laboratories, Wilmington, Mass., were immunized by an intraperitoneal injection of 0.5 ml Bordetella pertussis vaccine (Cannaught Laboratories, Willowdale, Toronto, Canada, 20 ou/ml) containing 100 μg egg albumin (Nutritional Biochemical Corp., Cleveland, Ohio). On day 16, Nippostrongylus brasiliensis (3000 larvae/0.1 ml) was administered subcutaneously and on day 21, 10 μg of egg albumin was administered intraperitoneally in 0.5 ml normal saline. On day 30, blood was collected by heart puncture and the serum was separated by centrifugation and refrigerated overnight at 5° C. […]
The passive cutaneous anaphylaxis (PCA) test was performed on 190-220 g male Sprague-Dawley rats (Charles River Breeding Laboratories, Wilmington, Mass.), in a manner similar to that described by J. Goose and A.M.J.N. Blair, Immunology, 16, 749(1969). […] The long and short axis of each wheal was measured with a metric vernier caliper and the average diameter was obtained for each reaction. […] The ID50 was calculated by the method of J. Berkson, J.Am.Stat.Assoc., 48, 565(1953).

[2] = LD50 in mice (acute toxicity); settings: mouse, in vivo
[3] = biological target: T1, PAF radioreceptor (dog platelets) (Canis lupus familiaris, UniProt A0A8I3NSH0); assay: PAF radioreceptor binding assay; settings: 3H-PAF
T1 construct: Platelet rich plasma is prepared by centrifugation of citrate-treated dog blood; from tissue; host or cells: washed dog platelets
T1 sequence (A0A8I3NSH0 1-343): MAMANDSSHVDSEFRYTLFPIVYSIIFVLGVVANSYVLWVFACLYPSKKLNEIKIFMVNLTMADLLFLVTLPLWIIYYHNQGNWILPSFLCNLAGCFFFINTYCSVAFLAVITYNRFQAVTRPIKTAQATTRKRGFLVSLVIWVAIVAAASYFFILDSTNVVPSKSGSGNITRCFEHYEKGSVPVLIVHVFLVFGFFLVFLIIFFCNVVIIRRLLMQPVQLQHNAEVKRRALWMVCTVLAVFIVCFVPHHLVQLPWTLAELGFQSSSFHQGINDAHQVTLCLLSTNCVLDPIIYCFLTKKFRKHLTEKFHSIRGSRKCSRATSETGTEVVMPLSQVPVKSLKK
Experimental: (m) PAF Radioreceptor Binding Assay
Platelet rich plasma is prepared by centrifugation of citrate-treated dog blood. Acidification to pH 6.5 with 0.15M citric acid and centrifugation for 10 minutes at 1000 g yields a platelet pellet which is then washed by resuspension in EDTA-Phosphate Buffered Saline (PBS) and recentrifuged. The washed platelet preparation is adjusted to 2×10^7 platelets/50 μl in 0.1% BSA-PBS.
To a […] microfuge tube containing 50 μl silicone oil (specific gravity 1.023) is added buffer, PAF standard or analog, or an extract to bring the aqueous volume to 150 μl. 50 μl of ^3 H-PAF (10,000 cpm, 45 Ci/mM) is added followed by 2×10^7 dog platelets. After mixing, incubating for 10 minutes at room temperature, and centrifuging for 1 minute in a Beckman Microfuge B (8000 g), the pellet is removed by clipping off the tip of the tube, solubilizing the platelets with 200 μl of 50% methanol, and counting in 10 ml of Aquasol.

| SMILES | ED50 ([1]; 10 min, 10 minute pretreatment) [mg/kg] | LD50 ([2]; ip, intraperitoneally) [mg/kg] | LD50 ([2]; po, orally) [mg/kg] | ED50 ([1]; 5 min, 5 minute pretreatment) [mg/kg] | IC50 [3] [µM] |
| --- | --- | --- | --- | --- | --- |
| CC(C)c1ccc2nc3ccc(C(=O)NCCCCn4ccnc4)cn3c(=O)c2c1 [Compound A, N-[4-(1H-imidazol-1-yl)butyl]-2-(1-methylethyl)-11-oxo-11H-pyrido[2,1-b]quinazoline-8-carboxamide] | 20 | 22 | 775 | – | – |
| CC(C)c1ccc2nc3ccc(C(=O)NCCCCc4cccnc4)cn3c(=O)c2c1 [Compound B, 2-(1-methylethyl)-N-[4-(3-pyridyl)butyl]-11-oxo-11H-pyrido[2,1-b]quinazoline-8-carboxamide] | – | – | > 1000 | 21 | 0.45 |
| CC(C)c1ccc2nc3ccc(C(=O)NCCCCCCc4cccnc4)cn3c(=O)c2c1 [Compound C, 2-(1-Methylethyl)-N-[6-(3-pyridyl)hexyl]-11-oxo-11H-pyrido[2,1-b]quinazoline-8-carboxamide] | – | – | – | – | 1 |
